Laboratory results as given in article PMC9841981 (Journal of Medicinal Chemistry, 2022).

Experiments:
P. aeruginosa = assay: MIC assay in CAA medium supplemented with ferric iron; format: cell-based, Pseudomonas aeruginosa; conditions: CAA medium supplemented with ferric iron (100 μM)
[1] = tested on: P. aeruginosa ΔpvdFΔpchA strain; assay: Antimicrobial susceptibility assay; conditions: iron-restricted CAA medium, MIC assay, 24 and 48 h
[2] = tested on: P. aeruginosa ΔpvdFΔpchA with additional deletion of pfeA; assay: Growth kinetics, additional deletion of pfeA; format: cell-based, Pseudomonas aeruginosa; conditions: 10 μM, CAA medium, 30 °C, 48 h, three independent biological replicates

Question: With `C#CCNC(=O)CN1CCN(CC(=O)NCCNC(=O)c2cccc(O)c2O)CCN(CC(=O)NCCNC(=O)c2cccc(O)c2O)CCN(CC(=O)NCCNC(=O)c2cccc(O)c2O)CC1` [Compound 2, Alkyne-DOTAM-OH] as the molecule, how does the “antimicrobial effect in the presence of excess ferric iron” value (P. aeruginosa) read?
Answer: The value was “lost their antimicrobial effect”.

Question: For `CNC(C)C1CCC(N)C(OC2C(N)CC(N)C(OC3OCC(C)(O)C(NC)C3O)C2O)O1` (stereo not drawn) [Gentamicin], which “growth inhibition / antimicrobial activity (in words)” value [1] is on record?
Answer: The value was “exhibited an activity in the expected range”.

Question: Which “growth in the strain lacking PfeA (OD 600 nm)” value [2] does the source give for `C#CCCCC(=O)Nc1c(CNC(=O)c2cccc(O)c2O)cc(CNC(=O)c2cccc(O)c2O)cc1CNC(=O)c1cccc(O)c1O` [Compound 4, Alkyne-MECAM-OH] here?
Answer: Its value is “delayed growth slightly”.
